From patent publication US6613932B1, “Prostaglandin derivatives” (Taisho Pharmaceutical Co., Ltd., priority 1999, dated 2003)

Test system: human vascular smooth muscle cells
Test: Determination of DNA synthesis inhibition activity (3H-thymidine intake) to human vascular smooth muscle cells
Assay type: cell-based
Conditions: for Growth inhibition rate (per cent to control): 1 × 10^−5 M compound added, 3H-thymidine intake after culturing 24 hours, compared with vehicle-treated group as control; for inhibiting activity on the growth of human vascular smooth muscle cells: summary in words of Table 1 (1 × 10^−5 M)
Procedure: Experiment [Determination of DNA synthesis inhibition activity of PGE1 derivatives to human vascular smooth muscle cells]
On a 24-well plate (manufactured by Corning Co.), 1×10^4 cells/well of quintic culture cells of vascular cells derived from normal human aorta (produced by Kurabo Co.) were inoculated and cultured for 2 days. The medium was exchanged from the growth medium (SG2: produced by Kurabo Co.) to the basal medium (SB2: produced by Kurabo Co.), and cultured for 24 hours, to which was added the growth medium (SG2) containing an ethanol solution of the test compound. ^3H-Thymidine (produced by Daiichi Chemicals Co.) was added in an amount of 0.01 mci/well and, after culturing for 24 hours, the cultured supernatant was removed by suction, followed by washing with a phosphate buffer solution (PBS). 5% Trichloroacetic acid (TCA) was added and, after allowing to stand at 4° C. for 20 minutes, the mixture was washed once with TCA. The mixture was washed with PBS, and dissolved in 0.5 M aqueous potassium hydroxide solution. Intake of ^3H-thymidine was determined using 20 μl of the aqueous potassium hydroxide solution dissolving the cells which incorporated ^3H-thymidine in the nucleus by means of a liquid scintillation counter (manufactured by Hewlett-Packard Co.).
Note: The test compounds were each used as an ethanol solution and compared with a vehicle-treated group as control.

| Compound | Growth inhibition rate (per cent to control) | inhibiting activity on the growth of human vascular smooth muscle cells |
| --- | --- | --- |
| CCCC1(C(O)C/C=C/C2C(SCCCO)CC(=O)C2CCCCCCC(=O)OC)CCC1 [Compound 41, (11R,16S)-11,15-Dideoxy-11-(3-hydroxypropylthio)-16-hydroxy-17,17-trimethylene-PGE1 methyl ester] | 93.2 per cent to control | high inhibiting activity |
| CCCC1(C(O)C/C=C/C2C(SCCO)CC(=O)C2CCCC/C=C/C(=O)OC)CCC1 [Compound 32, (2E,11R,16S)-11,15-Dideoxy-11-(2-hydroxyethylthio)-16-hydroxy-17,17-trimethylene-2,3-didehydro-PGE1 methyl ester] | 100 per cent to control | high inhibiting activity |
| CCCC1(C(O)C/C=C/C2C(SCC(N)C(=O)OC)CC(=O)C2CCCCCCC(=O)OC)CCC1 [Compound 54, (11R,16S)-11,15-Dideoxy-11-[(2R)-2-methoxycarbonyl-2-aminoethylthio]-16-hydroxy-17,17-trimethylene-PGE1 methyl ester] | 100 per cent to control | high inhibiting activity |
| CCCC1(C(O)C/C=C/C2C(SCCO)CC(=O)C2CCCCCCC(=O)OC)CCC1 [Compound 23, (11S,16S)-11,15-dideoxy-11-(2-hydroxyethylthio)-16-hydroxy-17,17-trimethylene-PGE1 methyl ester] | 91.5 per cent to control | high inhibiting activity |
| CCCC1(C(O)C/C=C/C2C(SCCO)CC(=O)C2CCCC/C=C/C(=O)OC)CCC1 [Compound 29, (2E,11R,16R)-11,15-Dideoxy-11-(2-hydroxyethylthio)-16-hydroxy-17,17-trimethylene-2,3-didehydro-PGE1 methyl ester] | 100 per cent to control | high inhibiting activity |
| CCCC1(C(O)C/C=C/C2C(SCC(N)C(=O)OC)CC(=O)C2CCCCCCC(=O)OC)CCC1 [Compound 55, (11S,16S)-11,15-dideoxy-11-[(2R)-2-methoxycarbonyl-2-aminoethylthio]-16-hydroxy-17,17-trimethylene-PGE1 methyl ester] | 94.3 per cent to control | high inhibiting activity |
